Source: patent US20250114323A1, “METHODS OF REDUCING THE RISK OF CARDIOVASCULAR EVENTS IN PATIENTS WITH LEFT VENTRICULAR HYPERTROPHY” (LEXICON PHARMACEUTICALS, INC., priority 2023, published 2025)
Like-named read-outs stand apart in the source and are kept apart here.

Columns and labels:
[1] = test system: patients with type 2 diabetes mellitus, chronic kidney disease, and risks for cardiovascular disease; assay type: in vivo
Protocol: A multicenter, double-blind clinical trial (SCORED) was conducted in which patients with type 2 diabetes mellitus (glycated hemoglobin level, ≥7%), chronic kidney disease (estimated glomerular filtration rate, 25 to 60 ml per minute per 1.73 m^2 of body-surface area), and risks for cardiovascular disease were randomly assigned in a 1:1 ratio to receive sotagliflozin or placebo. The primary end point was changed during the trial to the composite of the total number of deaths from cardiovascular causes, hospitalizations for heart failure, and urgent visits for heart failure.
Randomization was stratified according to criteria for heart failure (ejection fraction of ≤40% documented within the past year or hospitalization for heart failure during the previous 2 years) and geographic region (North America, Latin America, western Europe, eastern Europe, or rest of the world).
Persons 18 years of age or older with type 2 diabetes mellitus with a glycated hemoglobin level of 7% or higher, chronic kidney disease (eGFR, 25 to 60 ml per minute per 1.73 m^2 of body-surface area), and additional cardiovascular risk factors were enrolled. The risk factors consisted of at least one major cardiovascular risk factor in those 18 years of age or older or at least two minor cardiovascular risk factors in those 55 years of age or older. One exclusion criterion was any plan to start an SGLT2 inhibitor during the trial. Written informed consent was obtained from all the patients.
The original coprimary end points, assessed in time-to-event analyses, were the first occurrence of a major adverse cardiovascular event (MACE, defined as death from cardiovascular causes, non-fatal myocardial infarction, or nonfatal stroke) and the first occurrence of death from cardiovascular causes or hospitalization for heart failure (HHF). The primary end point was the total number of deaths from cardiovascular causes, hospitalizations for heart failure, and urgent visits for heart failure (UVHF).
The secondary end points were the total number of hospitalizations for heart failure and urgent visits for heart failure; deaths from cardiovascular causes; the total number of deaths from cardiovascular causes, hospitalizations for heart failure, nonfatal myocardial infarctions, and nonfatal strokes; the total number of deaths from cardiovascular causes, hospitalizations for heart failure, urgent visits for heart failure, and events of heart failure during hospitalization; the first occurrence of the composite of a sustained decrease of at least 50% in the eGFR from baseline for at least 30 days, long-term dialysis, renal trans-plantation, or a sustained eGFR of less than 15 ml per minute per 1.73 m^2 for at least 30 days; deaths from any cause; and the total number of deaths from cardiovascular causes, nonfatal myocardial infarctions, and nonfatal strokes. The use of total events allowed for a single patient to have more than one event contributing to the analysis. Subgroup analyses were prespecified.
All efficacy analyses followed the intention-to-treat principle. To allow for analyses of total events, competing-risk marginal models for recurrent events that were stratified according to heart-failure criteria and geographic region, with deaths not included in a given end point treated as competing terminal events, were applied to generate hazard ratios with Wald 95% confidence intervals and P values. Proportionality was confirmed by interaction terms between trial-group assignment and the logarithm of time. Event rates were summarized by the number of events per 100 patient-years of follow-up, and accrual of events over time was summarized by cumulative incidence functions.
Total events of myocardial infarction and total events of stroke were evaluated post hoc. Testing for differences between the two groups in adverse events was performed post hoc; P values were obtained from Pearson chi-square tests. […]

[2] = test system: patients with reported LVH and no reported hypertension; assay type: in vivo
[3] = SCORED overall, sotagliflozin vs placebo
[4] = SCORED overall, sotagliflozin vs placebo, listed as sotagliflozin
[5] = reported LVH and no reported hypertension, N = 217
[6] = reported LVH and no reported hypertension, sotagliflozin vs placebo

With CCOc1ccc(Cc2cc([C@@H]3O[C@H](SC)[C@@H](O)[C@H](O)[C@H]3O)ccc2Cl)cc1 [Sotagliflozin, (2S,3R,4R,5S,6R)-2-(4-chloro-3-(4-ethoxybenzyl)phenyl)-6-(methylthio) tetrahydro-2H-pyran-3,4,5-triol] the total hospitalizations ([1]; SCORED overall) was 1923, the “total patient-years spanned by hospitalizations” value ([1]; SCORED overall) was 104 patient-years and the “Deaths from any cause, event rate” value ([1]; SCORED overall, N = 5292) was 3.5 Events/100 patient-years. The “Deaths from any cause, number of events” value ([1]; SCORED overall, N = 5292) was 246 number of events, the “Deaths from cardiovascular causes, event rate” value ([1]; SCORED overall, N = 5292) was 2.2 Events/100 patient-years and the “Deaths from cardiovascular causes, number of events” value ([1]; SCORED overall, N = 5292) was 155 number of events. The “First occurrence of a sustained decrease of ≥50% in the eGFR from baseline for ≥30 days, long-term dialysis, renal transplantation, or sustained eGFR of <15 ml/min/1.73 m^2 for ≥30 days, event rate” value ([1]; SCORED overall, N = 5292) was 0.5 Events/100 patient-years, the “First occurrence of the composite renal end point (sustained ≥50% eGFR decrease, long-term dialysis, renal transplantation, or sustained eGFR <15), number of events” value ([1]; SCORED overall, N = 5292) was 37 number of events and the “Primary end point: total no. of deaths from cardiovascular causes, hospitalizations for HF, and urgent visits for HF, event rate” value ([1]; SCORED overall, N = 5292) was 5.6 Events/100 patient-years. The “Primary end point: total no. of deaths from cardiovascular causes, hospitalizations for HF, and urgent visits for HF, number of events” value ([1]; SCORED overall, N = 5292) was 400 number of events, the “Total no. of deaths from cardiovascular causes, hospitalizations for HF, nonfatal myocardial infarctions, and nonfatal strokes, event rate” value ([1]; SCORED overall, N = 5292) was 7.6 Events/100 patient-years and the “Total no. of deaths from cardiovascular causes, hospitalizations for HF, nonfatal myocardial infarctions, and nonfatal strokes, number of events” value ([1]; SCORED overall, N = 5292) was 541 number of events. The “Total no. of deaths from cardiovascular causes, hospitalizations for HF, urgent visits for HF, and events of HF during hospitalization, event rate” value ([1]; SCORED overall, N = 5292) was 6.4 Events/100 patient-years, the “Total no. of deaths from cardiovascular causes, hospitalizations for HF, urgent visits for HF, and events of HF during hospitalization, number of events” value ([1]; SCORED overall, N = 5292) was 453 number of events and the “Total no. of deaths from cardiovascular causes, nonfatal myocardial infarctions, and nonfatal strokes, event rate” value ([1]; SCORED overall, N = 5292) was 4.8 Events/100 patient-years. The “Total no. of deaths from cardiovascular causes, nonfatal myocardial infarctions, and nonfatal strokes, number of events” value ([1]; SCORED overall, N = 5292) was 343 number of events, the “Total no. of hospitalizations for HF and urgent visits for HF, event rate” value ([1]; SCORED overall, N = 5292) was 3.5 Events/100 patient-years and the “Total no. of hospitalizations for HF and urgent visits for HF, number of events” value ([1]; SCORED overall, N = 5292) was 245 number of events. For the same compound, the “composite renal end point, compared with placebo” value ([1]; SCORED overall, in words) was “did not differ significantly”, the “risk of the composite of deaths from cardiovascular causes, hospitalizations for heart failure, and urgent visits for heart failure, compared with placebo” value ([1]; SCORED overall, in words) was “lower risk” and the “Deaths from any cause: Hazard Ratio (95% CI)” value [1, 3] was 0.99 (0.83-1.18). For the same compound, the “Deaths from cardiovascular causes: Hazard Ratio (95% CI)” value [1, 3] was 0.90 (0.73-1.12), the “First occurrence of the composite renal end point: Hazard Ratio (95% CI)” value [1, 3] was 0.71 (0.46-1.08) and the “Original coprimary end point, first occurrence of death from cardiovascular causes or hospitalization for heart failure: hazard ratio” value [1, 3] was 0.77. The “Original coprimary end point, first occurrence of death from cardiovascular causes, nonfatal myocardial infarction, or nonfatal stroke: hazard ratio” value [1, 3] was 0.84, the “Primary end point: Hazard Ratio (95% CI)” value [1, 3] was 0.74 (0.63-0.88) and the “Total no. of deaths from cardiovascular causes, hospitalizations for HF, nonfatal myocardial infarctions, and nonfatal strokes: Hazard Ratio (95% CI)” value [1, 3] was 0.72 (0.63-0.83). The “Total no. of deaths from cardiovascular causes, hospitalizations for HF, urgent visits for HF, and events of HF during hospitalization: Hazard Ratio (95% CI)” value [1, 3] was 0.76 (0.64-0.89), the “Total no. of deaths from cardiovascular causes, nonfatal myocardial infarctions, and nonfatal strokes: Hazard Ratio (95% CI)” value [1, 3] was 0.77 (0.65-0.91) and the “Total no. of hospitalizations for HF and urgent visits for HF: Hazard Ratio (95% CI)” value [1, 3] was 0.67 (0.55-0.82). The “Deaths from cardiovascular causes: Hazard Ratio (95% CI)” value [1, 4] was 0.90, the “Primary end point: Hazard Ratio (95% CI)” value [1, 4] was 0.74 and the “Total no. of hospitalizations for HF and urgent visits for HF: Hazard Ratio (95% CI)” value [1, 4] was 0.67. For the same compound, the “acute kidney injury, percentage of patients” value ([1]; human, in vivo) was 2.2%, the “diabetic ketoacidosis, percentage of patients” value ([1]; human, in vivo) was 0.6% and the “diarrhea, percentage of patients” value ([1]; human, in vivo) was 8.5%. The “genital mycotic infections, percentage of patients” value ([1]; human, in vivo) was 2.4%, the “percentage of patients in whom hypertension developed” value ([1]; human, in vivo) was 2.6% and the “percentage of patients in whom hypotension developed” value ([1]; human, in vivo) was 2.6%. For the same compound, the “percentage of patients with a serious adverse event” value ([1]; human, in vivo) was 23.4%, the “volume depletion, percentage of patients” value ([1]; human, in vivo) was 5.3% and the “Diarrhea, genital mycotic infections, volume depletion, and diabetic ketoacidosis, frequency compared with placebo” value ([1]; in vivo) was “more common”. The “bone fractures, urinary tract infections, severe hypoglycemia, acute kidney injury, or amputations, compared with placebo” value ([1]; in vivo) was “no significant between-group differences”, the “percentage of patients with adverse events that occurred or worsened during the treatment period or with events leading to withdrawal of the trial regimen, compared with placebo” value ([1]; in vivo) was “no significant differences” and the “effect on the SCORED study's primary endpoint in the presence or absence of reported LVH or hypertension at baseline” value ([2]; FIG. 1, in words) was “consistent”. The “Acute Kidney Injury, count” value ([2]; human, in vivo) was 6, the “Acute Kidney Injury, figure in brackets” value ([2]; human, in vivo) was 2.8 and the “Any Malignancies of Special Interest, count” value ([2]; human, in vivo) was 4. For the same compound, the “Any Malignancies of Special Interest, figure in brackets” value ([2]; human, in vivo) was 1.8, the “Bone Fractures, count” value ([2]; human, in vivo) was 7 and the “Bone Fractures, figure in brackets” value ([2]; human, in vivo) was 3.2. The “Diabetic Ketoacidosis, count” value ([2]; human, in vivo) was 1, the “Diabetic Ketoacidosis, figure in brackets” value ([2]; human, in vivo) was 0.5 and the “Diarrhea, count” value ([2]; human, in vivo) was 19. The “Diarrhea, figure in brackets” value ([2]; human, in vivo) was 8.8, the “Genital Mycotic Infections, count” value ([2]; human, in vivo) was 2 and the “Genital Mycotic Infections, figure in brackets” value ([2]; human, in vivo) was 0.9. The “Pancreatitis, count” value ([2]; human, in vivo) was 1, the “Pancreatitis, figure in brackets” value ([2]; human, in vivo) was 0.5 and the “Severe Hypoglycemia, count” value ([2]; human, in vivo) was 2. For the same compound, the “Severe Hypoglycemia, figure in brackets” value ([2]; human, in vivo) was 0.9, the “Urinary Tract Infections, count” value ([2]; human, in vivo) was 20 and the “Urinary Tract Infections, figure in brackets” value ([2]; human, in vivo) was 9.2. The “Venous Thrombotic Events, count” value ([2]; human, in vivo) was 3, the “Venous Thrombotic Events, figure in brackets” value ([2]; human, in vivo) was 1.4 and the “Volume Depletion, count” value ([2]; human, in vivo) was 10. For the same compound, the “Volume Depletion, figure in brackets” value ([2]; human, in vivo) was 4.6, the “hazard ratio in patients with LVH without hypertension compared with the general population of patients at risk of cardiovascular events” value ([2]; in words) was “markedly lower” and the “risk of CV events in patients with reported LVH and no reported hypertension” value ([2]; in words) was “significantly reduced”. For the same compound, the “3-point MACE + HHF, event rate” value [2, 5] was 5.5 Events per 100 patient-years, the “3-point MACE, event rate” value [2, 5] was 3.1 Events per 100 patient-years and the “3-point MACE + HHF: Hazard Ratio (95% CI)” value [2, 6] was 0.46 (0.21, 0.99). The “3-point MACE: Hazard Ratio (95% CI)” value [2, 6] was 0.52 (0.21, 1.28).
